Experimental data from patent US10849854B2, “Process for preparing a composition comprising a high concentration of one or more avermectins” (GALDERMA SA, priority 2015, dated 2020).

Assay: Solubility of ivermectin in propylene glycol/oleyl alcohol (1/1) solubilizing medium
Assay type: physicochemical
Details: mixed propylene glycol/oleyl alcohol (1/1) solubilizing medium
From the text: Although these prior attempts have allowed formulating ivermectin in emulsions which remain stable despite temperature and/or pH variations, it has been observed that the amount of ivermectin that could be introduced into these emulsions was limited. Specifically, at most 33% by weight of ivermectin can be fully dissolved in a mixed propylene glycol/oleyl alcohol (1/1) solubilizing medium. Beyond this concentration, ivermectin tends to crystallize in the active phase before the emulsion is prepared and/or in the resulting emulsion, optionally when subjected to freeze/thaw cycles. Increasing the amount of glycols in the emulsion would raise other issues, since the emulsion stability would be detrimentally affected and the emulsion would become too sticky to be commercially acceptable. Therefore, from a practical point of view, it has not been possible so far to formulate emulsions comprising 2% or more by weight of ivermectin, which remains fully dissolved ivermectin over the time.

For ivermectin, the “Amount of ivermectin that can be fully dissolved” value was “at most 33 % by weight”.
